Reference: patent US12303509B2, “Compounds for the treatment of BRAF-associated diseases and disorders” (Pfizer Inc., priority 2020, dated 2025)
Structures can show the parent of a compound that is named as a salt.

Columns and labels:
[1] = MDR1 LLC-PK1 and BCRP MDCKII permeability assay: permeability coefficient (Papp); format: in vitro ADME
Source text: (§1) Final organic concentration in the assay was 1%.

P-gp (MDR1) = P-gp (MDR1) (Homo sapiens (Human), UniProt P08183); assay: MDR1 LLC-PK1 permeability assay: efflux ratio; format: in vitro ADME; conditions: pig
Source text: as §1

A375 cells = assay: Cellular phospho-ERK inhibition assay in A375 cells; format: cell-based; conditions: Homo sapiens, A-375, A375 cells (head prints A357), 2 hours treatment, read-out: A357 cell IC50
Protocol: A375 and H1755 cells were obtained from the American Type Culture Collection (ATCC, Rockville, MD). A375 cells were maintained in DMEM growth medium containing 10% FBS. H1755 cells were maintained in RPMI growth medium containing 10% FBS.
Cells were harvested according to standard protocols, counted and plated onto flat-bottom, 96-well tissue culture plates (Costar #3599) at 2.5×10^4 cells/well for A375 cells and 1.5×10^4 cells/well for H1755 cells in 100 μL/well of growth medium containing 10% FBS. After an overnight incubation at 37° C. with 5% CO2 cells were treated for 2 hours at 37° C., 5% CO2 with compounds prepared as a 9-point, 1:3.33 fold dilution series with final compound concentrations ranging from 66 pM-10 μM and a constant DMSO concentration of 0.25%. Control wells contained either 0.25% DMSO alone (uninhibited control) or 10 μM binimetinib (complete inhibition control). The levels of phosphorylated ERK are determined using an In Cell Western protocol: following compound incubation, growth medium was discarded, and cells were fixed with 0.4% formaldehyde in PBS for 20 minutes at room temperature. Cells were permeabilized with 100% methanol for 10 minutes at room temperature. Plates were washed with PBS containing 0.05% Tween-20 and blocked for 1 hour at room temperature with LI-COR Blocking Buffer (LI-COR Biosciences; Cat #927-40000). Plates were then incubated for 2 hours at room temperature with 50 μL of a 1:400 dilution of anti-phospho-ERK1/2 (Thr202/Tyr204) (Cell Signaling; Cat #9101) and a 1:1000 dilution of anti-GAPDH (Millipore; Cat #MAB374) in LI-COR blocking buffer containing 0.05% Tween-20. Plates were washed with PBS containing […] Tween-20 then incubated at room temperature for 1 hour with 50 μL of a 1:1000 dilution of anti-rabbit AlexaFluor 680 (Life Technologies; Cat #A21109) and a 1:1000 dilution of anti-mouse IRDye 800CW (LI-COR; Cat #926-32210) in LI-COR blocking buffer containing 0.05% Tween-20. Plates were analyzed by reading on an Odyssey CLx infrared scanner. For each well, the phospho-ERK signal was normalized to the GAPDH signal and converted to POC using the following equation:
[formula] • Where: • Xmax Average Uninhibited Controls • Xmin Average Complete Inhibition Controls IC50 values were then calculated using a 4-parameter fit in XLfit software and are provided in Table A1.

BCRP = BCRP (Homo sapiens (Human), UniProt Q9UNQ0); assay: BCRP MDCKII permeability assay: efflux ratio; format: in vitro ADME; conditions: dog
Protocol: BCRP transfected MDCKII cells were cultured and plated according to manufacturer's recommendations. Assay conditions included with and without the BCRP-specific inhibitor, KO143, at a concentration of 0.3 μM to ascertain the contribution of BCRP to the efflux value of the test compound.
Both positive and negative controls were used to assess functionality of P-gp or BCRP efflux in the assays. […] Final organic concentration in the assay was 1%. All dosing solutions contained 10 μM lucifer yellow to monitor LLC-PK1 or MDCKII cell monolayer integrity.
For the apical to basolateral determination (A to B), 75 μL of the test article in transport buffer were added to the apical side of the individual transwells and 250 μL of basolateral media, without compound or lucifer yellow, were added to each well. For the basolateral to apical determination (B to A), 250 μL of test article in transport buffer were added to each well and 75 μL transport buffer, without compound or lucifer yellow, were added to each transwell. All tests were performed in triplicate, and each compound was tested for both apical to basolateral and basolateral to apical transport. The plates were incubated for 2 hours on a Lab-Line Instruments Titer Orbital Shaker (VWR, West Chester, PA) at 50 rpm and 37° C. with 5% CO2. All culture plates were removed from the incubator and 50 μL of media were removed from the apical and basolateral portion of each well and added to 150 μL of 1 μM labetalol in 2:1 acetonitrile (acetonitrile): H2O, v/v.
These values were accepted when found to be below 2% for apical to basolateral and 5% basolateral to apical flux across the MDR1-transfected LLC-PK1 or BCRP-transfected MDCKII cell monolayers. The plates were sealed and the contents of each well analyzed by LC-MS/MS. The compound concentrations were determined from the ratio of the peak areas of the compound to the internal standard (labetalol) in comparison to the dosing solution.
The LC-MS/MS system was comprised of an HTS-PAL autosampler (Leap Technologies, Carrboro, NC), an HP1200 HPLC (Agilent, Palo Alto, CA), and a MDS Sciex 4000 Q Trap system (Applied Biosystems, Foster City, CA). […] The total run time, including re-equilibration, for a single injection was 1.2 minutes. Mass spectrometric detection of the analytes was accomplished using the ion spray positive mode.
An efflux ratio is calculated from the mean apical to basolateral (A-B) Papp data and basolateral to apical (B-A) Papp data using the following equation: Efflux ratio=Papp(B-A)/Papp(A-B)

[2] = biological target: full-length FLAG-tagged B-Raf(V600E) (Homo sapiens (Human), UniProt P15056, V600E); assay: BRAF V600E enzyme assay (TR-FRET competitive displacement); format: binding; conditions: averaged IC50; TR-FRET tracer displacement, 60 min
Protocol: A competitive displacement assay was configured for B-Raf that monitors the amount of a fluorescently-tagged “tracer” bound to B-Raf via TR-FRET from an anti-tag Eu-labeled antibody also bound to B-Raf. For full-length FLAG-tagged B-Raf(V600E), the assay mixtures consisted of 25 mM K^+HEPES, pH 7.4, 10 mM MgCl2, 0.01% Triton X-100, 1 mM DTT, 2% DMSO (from compound), 50 nM Tracer 1710 (ThermoFisher, PR9176A), 0.5 nM Eu anti-FLAG (M2)-cryptate Ab (Cisbio, 61FG2KLB) and 5 nM full-length, N-terminally FLAG-tagged B-Raf(V600E) (Origene Technologies, TP700031. Compounds were typically diluted in DMSO across an 11-point dosing range created using a 3-fold serial dilution protocol at a top dose of 10 μM. The assay was run in 384-well, polystyrene, low-volume, non-treated, white microtiter plates (Costar 4512) in a final volume of 12 μL. Low control wells included 1 μM of a potent B-Raf inhibitor as a control. The assays were incubated at ambient temperature (typically 22° C.) for 60 min and then read on a PerkinElmer EnVision microplate reader using standard TRF settings (λEx=320 nm, λEm=615 & 665 nm). The ratioed counts (665 nm/615 nm) were converted to percent of control (POC) using the following equation:
[formula] • where: • Xmax Average Uninhibited Controls • Xmin Average Background
A 4-parameter logistic model was the fit to the POC data for each compound. From that fit, the IC50 was estimated and is defined as the concentration of compound at which the best-fit curve crosses 50 POC.

Chain of P-gp (MDR1) (P08183 whole entry, species assumed): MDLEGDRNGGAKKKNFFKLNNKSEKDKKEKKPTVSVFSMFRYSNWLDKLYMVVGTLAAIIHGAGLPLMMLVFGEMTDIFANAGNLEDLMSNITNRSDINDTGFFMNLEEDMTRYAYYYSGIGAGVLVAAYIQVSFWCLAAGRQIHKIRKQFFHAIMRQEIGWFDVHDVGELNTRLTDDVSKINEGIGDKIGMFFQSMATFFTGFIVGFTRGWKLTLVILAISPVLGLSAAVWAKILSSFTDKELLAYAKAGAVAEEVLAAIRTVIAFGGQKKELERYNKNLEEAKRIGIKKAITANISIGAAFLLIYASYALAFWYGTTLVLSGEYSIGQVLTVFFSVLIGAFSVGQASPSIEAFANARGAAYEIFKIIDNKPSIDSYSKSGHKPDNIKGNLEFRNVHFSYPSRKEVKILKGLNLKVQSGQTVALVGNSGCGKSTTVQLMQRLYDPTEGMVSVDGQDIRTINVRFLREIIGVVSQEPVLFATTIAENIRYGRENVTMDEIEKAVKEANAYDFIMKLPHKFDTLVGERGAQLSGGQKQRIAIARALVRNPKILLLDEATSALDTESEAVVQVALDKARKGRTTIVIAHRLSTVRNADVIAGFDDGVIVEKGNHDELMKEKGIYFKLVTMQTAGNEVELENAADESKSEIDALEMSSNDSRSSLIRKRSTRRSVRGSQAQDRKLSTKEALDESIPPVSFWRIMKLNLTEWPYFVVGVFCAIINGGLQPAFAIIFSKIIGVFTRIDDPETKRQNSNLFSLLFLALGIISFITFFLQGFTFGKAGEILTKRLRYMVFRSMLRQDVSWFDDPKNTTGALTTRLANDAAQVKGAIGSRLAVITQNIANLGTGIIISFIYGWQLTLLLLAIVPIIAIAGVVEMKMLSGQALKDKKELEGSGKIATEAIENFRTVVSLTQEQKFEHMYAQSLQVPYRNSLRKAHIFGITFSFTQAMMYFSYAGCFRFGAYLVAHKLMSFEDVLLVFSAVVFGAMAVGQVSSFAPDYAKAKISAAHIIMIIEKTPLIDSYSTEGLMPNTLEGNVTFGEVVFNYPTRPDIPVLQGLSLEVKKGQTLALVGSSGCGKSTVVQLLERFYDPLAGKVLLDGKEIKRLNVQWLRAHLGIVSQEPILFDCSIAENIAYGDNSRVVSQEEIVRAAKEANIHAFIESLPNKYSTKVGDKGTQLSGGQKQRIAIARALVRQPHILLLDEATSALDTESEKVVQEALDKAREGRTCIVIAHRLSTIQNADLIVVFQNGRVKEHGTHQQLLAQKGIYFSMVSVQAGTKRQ
Chain of full-length FLAG-tagged B-Raf(V600E) (P15056 whole entry V600E): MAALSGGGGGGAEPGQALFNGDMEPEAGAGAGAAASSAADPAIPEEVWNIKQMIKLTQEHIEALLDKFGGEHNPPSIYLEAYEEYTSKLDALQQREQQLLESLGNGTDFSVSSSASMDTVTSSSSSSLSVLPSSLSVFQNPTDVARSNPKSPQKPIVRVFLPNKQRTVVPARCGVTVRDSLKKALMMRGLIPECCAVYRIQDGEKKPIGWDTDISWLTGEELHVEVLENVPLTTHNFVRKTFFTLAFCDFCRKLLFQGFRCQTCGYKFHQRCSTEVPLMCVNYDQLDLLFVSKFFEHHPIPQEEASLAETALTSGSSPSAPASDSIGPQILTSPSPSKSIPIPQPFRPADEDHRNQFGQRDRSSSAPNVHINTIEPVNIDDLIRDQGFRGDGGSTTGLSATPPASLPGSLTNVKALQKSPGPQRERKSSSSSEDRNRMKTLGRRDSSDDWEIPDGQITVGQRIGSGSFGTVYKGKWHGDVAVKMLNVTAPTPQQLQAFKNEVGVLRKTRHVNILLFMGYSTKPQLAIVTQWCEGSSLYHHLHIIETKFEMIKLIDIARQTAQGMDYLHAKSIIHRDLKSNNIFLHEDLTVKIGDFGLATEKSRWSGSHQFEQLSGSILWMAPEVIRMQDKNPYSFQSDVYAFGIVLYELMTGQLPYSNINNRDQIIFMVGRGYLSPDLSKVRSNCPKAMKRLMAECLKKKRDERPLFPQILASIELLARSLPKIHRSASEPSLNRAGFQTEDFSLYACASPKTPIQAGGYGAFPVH
Chain of BCRP (Q9UNQ0 whole entry): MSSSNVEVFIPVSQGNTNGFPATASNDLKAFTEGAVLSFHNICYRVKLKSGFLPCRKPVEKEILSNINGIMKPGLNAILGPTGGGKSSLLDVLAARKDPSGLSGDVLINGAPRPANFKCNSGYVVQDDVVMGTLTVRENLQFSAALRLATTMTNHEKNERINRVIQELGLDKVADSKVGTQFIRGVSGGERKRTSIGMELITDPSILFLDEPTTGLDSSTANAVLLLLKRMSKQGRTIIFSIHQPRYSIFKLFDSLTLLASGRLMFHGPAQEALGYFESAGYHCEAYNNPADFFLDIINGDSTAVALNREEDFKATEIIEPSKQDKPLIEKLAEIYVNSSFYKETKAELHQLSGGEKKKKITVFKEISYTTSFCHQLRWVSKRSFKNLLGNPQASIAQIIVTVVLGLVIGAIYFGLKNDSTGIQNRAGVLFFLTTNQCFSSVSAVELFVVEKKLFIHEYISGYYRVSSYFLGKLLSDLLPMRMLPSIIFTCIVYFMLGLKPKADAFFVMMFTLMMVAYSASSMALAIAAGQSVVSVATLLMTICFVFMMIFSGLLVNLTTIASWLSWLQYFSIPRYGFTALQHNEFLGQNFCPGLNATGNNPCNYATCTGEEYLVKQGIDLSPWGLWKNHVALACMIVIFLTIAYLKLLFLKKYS

Compound `Cc1c(Nc2c(F)c(F)cc(NS(=O)(=O)N(C)C)c2Cl)ccc2ncn(C)c(=O)c12` [Example 98, N-(2-chloro-3-((3,5-dimethyl-4-oxo-3,4-dihydroquinazolin-6-yl)amino)-4,5-difluorophenyl)-(N,N-dimethyl)-sulfamide] has a Papp at 2 h, 1 µM [1] of 31 ×10⁻⁶ cm/s, an efflux ratio at 2 h, 1 µM (P-gp (MDR1)) of 1.1 and an IC50 (A375 cells) of 0.049 µM. It also gave an efflux ratio at 2 h, 1 µM (BCRP) of 1.1 and an IC50 [2] of 0.02 µM.

Compound `Cc1c(Nc2c(F)ccc(NS(=O)(=O)N3CCC(O)CC3)c2Cl)ccc2ncn(C)c(=O)c12` [Example 77, N-(2-chloro-3-((3,5-dimethyl-4-oxo-3,4-dihydroquinazolin-6-yl)amino)-4-fluorophenyl)-4-hydroxypiperidine-1-sulfonamide trifluoroacetate] has an IC50 (A375 cells) of 0.127 µM and an IC50 [2] of 0.177 µM.

With `Cn1cnc2ccc(Nc3c(F)ccc(NS(=O)(=O)N4CC(OC(F)F)C4)c3Cl)c(Cl)c2c1=O` [Example 143, N-(2-chloro-3-((5-chloro-3-methyl-4-oxo-3,4-dihydroquinazolin-6-yl)amino)-4-fluorophenyl)-3-(difluoromethoxy)azetidine-1-sulfonamide] the Papp at 2 h, 1 µM [1] was 16 ×10⁻⁶ cm/s, the efflux ratio at 2 h, 1 µM (P-gp (MDR1)) was 2.6 and the IC50 (A375 cells) was 0.045 µM. For the same compound, the efflux ratio at 2 h, 1 µM (BCRP) was 3.9.

`Cc1c(Nc2c(F)ccc(NS(=O)(=O)N(C)C3CCOC3)c2Cl)ccc2ncn(C)c(=O)c12` (centres unmarked) [Example 72, N-(2-chloro-3-((3,5-dimethyl-4-oxo-3,4-dihydroquinazolin-6-yl)amino)-4-fluorophenyl)-(N-methyl-N-(tetrahydrofuran-3-yl))-sulfamide] gave an IC50 (A375 cells) of 0.195 µM and an IC50 [2] of 0.299 µM.

For `Cc1c(Nc2c(F)ccc(NS(=O)(=O)N3CCC(C(F)(F)F)C3)c2Cl)ccc2ncn(C)c(=O)c12` (centres unmarked) [Example 76, N-(2-chloro-3-((3,5-dimethyl-4-oxo-3,4-dihydroquinazolin-6-yl)amino)-4-fluorophenyl)-3-(trifluoromethyl)pyrrolidine-1-sulfonamide trifluoroacetate], the IC50 (A375 cells) was 0.622 µM and the IC50 [2] was 0.183 µM.

Compound `Cc1c(Nc2c(F)ccc(NS(=O)(=O)N3CC(COC(F)(F)F)C3)c2Cl)ccc2ncn(C)c(=O)c12` [Example 156, N-(2-chloro-3-((3,5-dimethyl-4-oxo-3,4-dihydroquinazolin-6-yl)amino)-4-fluorophenyl)-3-((trifluoromethoxy)methyl)azetidine-1-sulfonamide trifluoroacetate] has an IC50 (A375 cells) of 0.872 µM and an IC50 [2] of 0.202 µM.

Work on `Cc1c(Nc2c(F)ccc(NS(=O)(=O)N3CCC4CC4C3)c2Cl)ccc2ncn(C)c(=O)c12` (centres unmarked) [Example 80] yielded an IC50 (A375 cells) of 0.311 µM, an efflux ratio at 2 h, 1 µM (BCRP) of 0.6 and an IC50 [2] of 0.103 µM.

Work on `Cc1c(Nc2c(F)ccc(NS(=O)(=O)N3CC4CCC3C4)c2Cl)ccc2ncn(C)c(=O)c12` (centres unmarked) [Example 81, N-(2-chloro-3-((3,5-dimethyl-4-oxo-3,4-dihydroquinazolin-6-yl)amino)-4-fluorophenyl)-2-azabicyclo[2.2.1]heptane-2-sulfonamide trifluoroacetate] yielded an IC50 (A375 cells) of 0.133 µM and an IC50 [2] of 0.075 µM.

In the case of `Cc1c(Nc2c(F)ccc(NS(=O)(=O)N3CC(OC(F)(F)F)C3)c2Cl)ccc2ncn(C)c(=O)c12` [Example 162, N-(2-chloro-3-((3,5-dimethyl-4-oxo-3,4-dihydroquinazolin-6-yl)amino)-4-fluorophenyl)-3-(trifluoromethoxy)azetidine-1-sulfonamide], the IC50 (A375 cells) is reported as 1.28 µM and the IC50 [2] is reported as 0.114 µM.

For `Cn1cnc2ccc(Nc3c(F)ccc(NS(=O)(=O)N4CC(OC(F)F)C4)c3Cl)c(F)c2c1=O` [Example 144, N-(2-chloro-4-fluoro-3-((5-fluoro-3-methyl-4-oxo-3,4-dihydroquinazolin-6-yl)amino)phenyl)-3-(difluoromethoxy)azetidine-1-sulfonamide], the Papp at 2 h, 1 µM [1] was 27 ×10⁻⁶ cm/s, the efflux ratio at 2 h, 1 µM (P-gp (MDR1)) was 5.2 and the IC50 (A375 cells) was 0.033 µM. The IC50 [2] was 0.01 µM.

Compound `COC1CCN(S(=O)(=O)Nc2ccc(F)c(Nc3ccc4ncn(C)c(=O)c4c3C)c2Cl)CC1` [Example 75, N-(2-chloro-3-((3,5-dimethyl-4-oxo-3,4-dihydroquinazolin-6-yl)amino)-4-fluorophenyl)-4-methoxypiperidine-1-sulfonamide trifluoroacetate] has an IC50 (A375 cells) of 0.114 µM and an IC50 [2] of 0.191 µM.

`Cc1c(Nc2c(F)ccc(NS(=O)(=O)N(C)C3CCC3)c2Cl)ccc2ncn(C)c(=O)c12` [Example 74, N-(2-chloro-3-((3,5-dimethyl-4-oxo-3,4-dihydroquinazolin-6-yl)amino)-4-fluorophenyl)-(N-cyclobutyl-N-methyl)-sulfamide] gave an IC50 (A375 cells) of 0.16 µM and an IC50 [2] of 0.203 µM.

Compound `Cc1c(Nc2c(F)ccc(NS(=O)(=O)N(C)C3CC3)c2Cl)ccc2ncn(C)c(=O)c12` [Example 73, N-(2-chloro-3-((3,5-dimethyl-4-oxo-3,4-dihydroquinazolin-6-yl)amino)-4-fluorophenyl)-(N-cyclopropyl-N-methyl)-sulfamide] has an IC50 (A375 cells) of 0.121 µM and an IC50 [2] of 0.234 µM.

Compound `Cc1c(Nc2c(F)ccc(NS(=O)(=O)N3CC(C)C3)c2Cl)ccc2ncn(C)c(=O)c12` [Example 147, N-(2-chloro-3-((3,5-dimethyl-4-oxo-3,4-dihydroquinazolin-6-yl)amino)-4-fluorophenyl)-3-methylazetidine-1-sulfonamide trifluoroacetate] has a Papp at 2 h, 1 µM [1] of 28 ×10⁻⁶ cm/s, an efflux ratio at 2 h, 1 µM (P-gp (MDR1)) of 1 and an IC50 (A375 cells) of 0.067 µM. The IC50 [2] was 0.019 µM.

`Cc1c(Nc2c(F)ccc(NS(=O)(=O)N3CC(C#N)C3)c2Cl)ccc2ncn(C)c(=O)c12` [Example 146, N-(2-chloro-3-((3,5-dimethyl-4-oxo-3,4-dihydroquinazolin-6-yl)amino)-4-fluorophenyl)-3-cyanoazetidine-1-sulfonamide trifluoroacetate] showed a Papp at 2 h, 1 µM [1] of 17 ×10⁻⁶ cm/s, an efflux ratio at 2 h, 1 µM (P-gp (MDR1)) of 6.9 and an IC50 (A375 cells) of 0.031 µM. The IC50 [2] was 0.027 µM.

Compound `Cc1c(Nc2c(F)ccc(NS(=O)(=O)N3CCC4CC43)c2Cl)ccc2ncn(C)c(=O)c12` (centres unmarked) [Example 153, N-(2-chloro-3-((3,5-dimethyl-4-oxo-3,4-dihydroquinazolin-6-yl)amino)-4-fluorophenyl)-2-azabicyclo[3.1.0]hexane-2-sulfonamide trifluoroacetate] has an IC50 (A375 cells) of 0.31 µM and an IC50 [2] of 0.071 µM.

For `Cc1c(Nc2c(F)ccc(NS(=O)(=O)N3CC(COCF)C3)c2Cl)ccc2ncn(C)c(=O)c12` [Example 164, N-(2-chloro-3-((3,5-dimethyl-4-oxo-3,4-dihydroquinazolin-6-yl)amino)-4-fluorophenyl)-3-((fluoromethoxy)methyl)azetidine-1-sulfonamide trifluoroacetate], the IC50 (A375 cells) was 1.41 µM and the IC50 [2] was 0.113 µM.

Compound `Cc1c(Nc2c(F)ccc(NS(=O)(=O)N3CC4(CCC4)C3)c2Cl)ccc2ncn(C)c(=O)c12` [Example 157, N-(2-chloro-3-((3,5-dimethyl-4-oxo-3,4-dihydroquinazolin-6-yl)amino)-4-fluorophenyl)-2-azaspiro[3.3]heptane-2-sulfonamide trifluoroacetate] has a Papp at 2 h, 1 µM [1] of 23 ×10⁻⁶ cm/s, an efflux ratio at 2 h, 1 µM (P-gp (MDR1)) of 1.2 and an IC50 (A375 cells) of 0.886 µM. The efflux ratio at 2 h, 1 µM (BCRP) was 1.2.
